Data: patent US20250161314A1, “METHOD FOR TREATMENT OR IMPROVEMENT OF NON-ALCOHOLIC FATTY LIVER DISEASE AND OBESITY BY LUMICHROME” (CATHAY GENERAL HOSPITAL, priority 2023, published 2025)
“Also recorded” adds a separate entry of the source.

What was measured:
Format in all cases: in vivo
FABP1 = test: qPCR relative mRNA expression level of FABP1 in the liver; settings: HFD mice
Description: (§1) The serum was further analyzed by a dry chemistry auto analyzer (DRI-CHEM NX500i, Fujifilm, Tokyo, Japan) to measure the following blood biochemical values: AST, ALT and LDH. • (4) The mice in all groups were eventually sacrificed by excessive anesthesia, and both the epididymal fat and liver thereof were collected for a weight measurement, wherein the liver was divided into three parts, and a first part thereof, the first liver tissue, was further tested to determine the lipid amount in the liver by a lipid extraction kit (Chloroform-Free) (ab211044, Abeam, Cambridge, UK). • (5) A second part of the liver, the second liver tissue, was soaked in 4% formaldehyde (10% formalin) for frozen section, and the obtained liver tissue section was further subjected to (1) H/E staining and (2) Oil red O (ORO) staining for lipids (Bio-check laboratories, Taipei, Taiwan). • (6) A third part of the liver, the third liver tissue, was subjected to mRNA extraction, and the extracted mRNA was further subjected to quantitative polymerase chain reaction (qPCR). Further, (1) by qPCR with the primers of SEQ ID NO:1 and SEQ ID NO:2, the relative mRNA expression level of Acta2, which relates to liver fibrosis, in the liver in all groups was determined. […]

C57BL/6 male mice [1] = test: Epididymal fat weight, liver weight and lipid amount in the liver; settings: HFD mice
Description: (§2) The serum was further analyzed by a dry chemistry auto analyzer (DRI-CHEM NX500i, Fujifilm, Tokyo, Japan) to measure the following blood biochemical values: AST, ALT and LDH. • (4) The mice in all groups were eventually sacrificed by excessive anesthesia, and both the epididymal fat and liver thereof were collected for a weight measurement, wherein the liver was divided into three parts, and a first part thereof, the first liver tissue, was further tested to determine the lipid amount in the liver by a lipid extraction kit (Chloroform-Free) (ab211044, Abeam, Cambridge, UK). • (5) A second part of the liver, the second liver tissue, was soaked in 4% formaldehyde (10% formalin) for frozen section, and the obtained liver tissue section was further subjected to (1) H/E staining and (2) Oil red O (ORO) staining for lipids (Bio-check laboratories, Taipei, Taiwan). • (6) A third part of the liver, the third liver tissue, was subjected to mRNA extraction, and the extracted mRNA was further subjected to quantitative polymerase chain reaction (qPCR). Further, (1) by qPCR with the primers of SEQ ID NO:1 and SEQ ID NO:2, the relative mRNA expression level of Acta2, which relates to liver fibrosis, in the liver in all groups was determined. (2) by qPCR with the primers of SEQ ID NO:3 and SEQ ID NO:4, the relative mRNA expression level of CD36, which affects fat uptake by liver cells, in all groups was determined; and (3) by qPCR with the primers of SEQ ID NO:5 and SEQ ID NO:6, the relative mRNA expression level of FABP1, which affects fat uptake by liver cells, in all groups was determined.
(§3) The present invention used a statistic and graphing software (prism ver. 6) for data analysis. The data of the numerical mean±standard deviation (SD) of the independent samples in all six groups were firstly obtained, and further subjected to One-way ANOVA for statistics. The post-hoc test was Tukey multiple comparison test. The differences between the groups were analyzed separately, and a p value less than 0.05 indicated a statistically significant difference.

C57BL/6 male mice [2] = test: Body size and liver appearance of mice after high-fat diet and lumichrome; settings: HFD mice; for liver appearance (fatty liver): from 21th week of 32 weeks
Description: as §2

C57BL/6 male mice [3] = test: Weekly weight measurement (weight gain) of high-fat diet mice; settings: HFD mice, 12 weeks
C57BL/6 male mice [4] = test: Serum blood biochemical values AST, ALT and LDH by dry chemistry auto analyzer; settings: HFD mice
Description: as §2, §3

CD36 = test: qPCR relative mRNA expression level of CD36 in the liver; settings: HFD mice
Description: as §1

C57BL/6 male mice [5] = test: Liver sections, H/E staining and Oil red O staining for lipid droplets; settings: HFD mice, H/E and ORO staining
Description: as §1

C57BL/6 male mice [6] = test: Grip strength test by grip strength meter; settings: lumichrome 0.8 or 4 mg/kg/day oral gavage
Acta2 = test: qPCR relative mRNA expression level of Acta2 in the liver; settings: HFD mice
Description: as §1

[7] = lumichrome high dose 4 mg/kg/day oral gavage
[8] = lumichrome low dose 0.8 mg/kg/day oral gavage
[9] = lumichrome high dose 4 mg/kg/day oral gavage, 4 mg/kg/day

Cc1cc2nc3[nH]c(=O)[nH]c(=O)c3nc2cc1C [lumichrome] was tested, and the “relative mRNA expression level of FABP1 in the liver” value (FABP1; [7]) was “less mRNA expression of CD36 and FABP1 than that of the High-fat diet group”, the “relative mRNA expression level of FABP1 in the liver” value (FABP1; [8]) was “less mRNA expression of CD36 and FABP1 than that of the High-fat diet group” and the epididymal fat weight (C57BL/6 male mice [1]; [7]) was “lower than those of the High-fat diet group”. The “lipid amount in the liver” value (C57BL/6 male mice [1]; [7]) was “lower than those of the High-fat diet group”, the liver weight (C57BL/6 male mice [1]; [7]) was “lower than those of the High-fat diet group” and the epididymal fat weight (C57BL/6 male mice [1]; [8]) was “lower than those of the High-fat diet group”. The liver weight (C57BL/6 male mice [1]; [8]) was “lower than those of the High-fat diet group”, the “body size of mice” value (C57BL/6 male mice [2]; [7]) was “more obvious efficacy to ameliorate the body size increase of mice” and the “liver appearance (fatty liver)” value (C57BL/6 male mice [2]; [7]) was “improve the appearance of a fatty liver to regain a blood red color”. The “body size of mice” value (C57BL/6 male mice [2]; [8]) was “inhibit the increase of the body size of mice”, the “liver appearance (fatty liver)” value (C57BL/6 male mice [2]; [8]) was “improve the appearance of a fatty liver and regain a red color” and the weight gain (C57BL/6 male mice [3]; [9]) was “ameliorate weight gain increase of mice resulting from the high-fat diet; also recorded: no longer increased greatly at and after the fourth week after providing lumichrome”. For the same compound, the weight gain (C57BL/6 male mice [3]; [8]) was “ameliorate weight gain increase of mice resulting from the high-fat diet”, the “ALT in the serum” value (C57BL/6 male mice [4]; [7]) was “lower than those of the High-fat diet group” and the “AST in the serum” value (C57BL/6 male mice [4]; [7]) was “lower than those of the High-fat diet group”. The “LDH in the serum” value (C57BL/6 male mice [4]; [7]) was “lower than those of the High-fat diet group”, the “ALT in the serum” value (C57BL/6 male mice [4]; [8]) was “lower than those of the High-fat diet group” and the “AST in the serum” value (C57BL/6 male mice [4]; [8]) was “lower than those of the High-fat diet group”. The “LDH in the serum” value (C57BL/6 male mice [4]; [8]) was “lower than those of the High-fat diet group”, the “relative mRNA expression level of CD36 in the liver” value (CD36; [7]) was “less mRNA expression of CD36 and FABP1 than that of the High-fat diet group” and the “relative mRNA expression level of CD36 in the liver” value (CD36; [8]) was “less mRNA expression of CD36 and FABP1 than that of the High-fat diet group”. For the same compound, the “lipid droplets size and accumulation in the liver” value (C57BL/6 male mice [5]; [9]) was “smaller lipid droplets and less lipid droplets accumulation than those of the High-fat diet group; also recorded: significantly better than that in the HFD-lumichrome in low dose group”, the “lipid droplets size and accumulation in the liver” value (C57BL/6 male mice [5]; [8]) was “smaller lipid droplets and less lipid droplets accumulation than those of the High-fat diet group” and the “grip strength (muscular endurance)” value (C57BL/6 male mice [6]; HFD mice) was “did not cause a decrease in muscular endurance of mice”. The “grip strength (muscular endurance)” value (C57BL/6 male mice [6]; control diet mice) was “did not cause a decrease in muscular endurance of mice”, the “relative mRNA expression level of Acta2 in the liver” value (Acta2; [7]) was “less mRNA expression of Acta2 than that of the High-fat diet group” and the “relative mRNA expression level of Acta2 in the liver” value (Acta2; [8]) was “less mRNA expression of Acta2 than that of the High-fat diet group”.
